Experiments:
[1] = Pharmacokinetics of noribogaine in healthy male volunteers (plasma and urine, LCMSMS); details: for CL/F / AUC0-216 / AUC0-∞ / Cmax / Tmax / T½: mean (SD); for AUC0-216 / AUC0-∞ / Cmax / Tmax / T½: plasma
[2] = system: opioid-dependent participants; test: Treatment emergent adverse events in opioid-dependent participants; format: in vivo, human
Procedure: The efficacy of noribogaine in humans was evaluated in opioid-dependent participants in a randomized, placebo-controlled, double-blind trial. […] See U.S. application Ser. No. 14/214,157, filed Mar. 14, 2014 and Ser. No. 14/346,655, filed Mar. 21, 2014, which are incorporated herein by reference in their entireties.
Three cohorts of nine (9) subjects (6 administered noribogaine and 3 administered placebo in each cohort) were evaluated for tolerability, pharmacokinetics, and efficacy. Cohort 1 received a single dose of 60 mg noribogaine or placebo. Cohort 2 received a single dose of 120 mg noribogaine or placebo. Cohort 3 received a single dose of 180 mg noribogaine or placebo. […] Headaches were frequent in the placebo and 60 mg noribogaine treatment groups, but were attenuated in the 120 mg and 180 mg dose groups.

[3] = system: opioid-dependent participants; test: QT interval in opioid-dependent participants; format: in vivo, human; details: 60, 120, 180 mg, first 24 hours post administration
Procedure: Patients' QT intervals were evaluated at regular time points throughout the study.

[4] = Human pharmacokinetic study, single oral tablet, fasting healthy volunteers (serum levels); format: in vivo; details: fasting; for Cmax: human, serum, oral
Procedure: In double blind studies, fasting healthy volunteers (6 per cohort) were treated once orally with a tablet of noribogaine HCl. In escalating cohorts, the volunteers received 3 mg, 10 mg, 30 mg or 60 mg noribogaine.

[5] = system: dogs; test: Single dose (acute oral) toxicity/TK study in dogs; format: in vivo, dog
[6] = Single dose (acute oral) toxicity/TK study in dogs; format: in vivo, dog; details: dog, in vivo; single oral dose
[7] = Single dose toxicity in cynomolgus monkeys; format: in vivo, cynomolgus monkey; details: cynomolgus monkey, in vivo; oral gavage; read-out: single dose maximum tolerated dose (MTD)
Procedure: The objective of the study was to determine the toxicity and toxicokinetic profile of noribogaine following oral (gavage) administration to the cynomolgus monkey. Each dose was followed by a 7 day washout period. Dosing was staggered by 45 minutes. On study day 15, one animal was administered 80 mg/kg and the other animal was administered 160 mg/kg. The test article was administered as follows in Table 1:
Parameters monitored on the study included: mortality, clinical signs and body weights. Blood samples were collected for TK evaluation. […] The single dose maximum tolerated dose (MTD) was determined to be greater than 160 mg/kg based on the parameters monitored during the study.

[8] = system: healthy, drug-free male volunteers; test: Cold pressor test in healthy volunteers; format: in vivo, human; details: 3, 10, 30, 60 mg single oral dose; hand immersion duration and VAS pain scores
Procedure: Analgesic effect was assessed based on duration of hand immersion in ice water and on visual analog scale (VAS) pain scores upon hand removal from the water bath.
Safety and tolerability of noribogaine were tested in the group of volunteers from Example 9. […] Safety evaluations included clinical monitoring, recording of adverse events (AEs), safety laboratory tests, vital signs, ECG telemetry from −2 h to 6 h after dosing, and 12-lead electrocardiograms (ECGs) up to 216 hours post-dosing.

## CC[C@H]1CC2C[C@H]3c4[nH]c5ccc(O)cc5c4CCN(C2)C13 [noribogaine]
[1]; 3 mg (n = 6)
  CL/F: 41.4 (7.0) L/h
  AUC0-216: 72.2 (13.2) ng · hr/ml
  AUC0-∞: 74.2 (13.1) ng · hr/ml
  Cmax: 5.2 (1.4) ng/ml
  Tmax: 1.9 (0.6) hr
  T½: 40.9 (8.7) hr
[1]; 10 mg (n = 6)
  CL/F: 42.3 (12.0) L/h
  AUC0-216: 251.4 (78.5) ng · hr/ml
  AUC0-∞: 254.5 (78.9) ng · hr/ml
  Cmax: 14.5 (2.1) ng/ml
  Tmax: 2.9 (1.8) hr
  T½: 49.2 (11.5) hr
[1]; 30 mg (n = 6)
  CL/F: 46.9 (16.4) L/h
  AUC0-216: 677.6 (221.1) ng · hr/ml
  AUC0-∞: 700.4 (223.3) ng · hr/ml
  Cmax: 55.9 (14.8) ng/ml
  Tmax: 1.8 (0.6) hr
  T½: 27.6 (7.0)) hr
[1]; 60 mg (n = 6)
  CL/F: 34.0 (11.4) L/h
  AUC0-216: 1935.4 (725.4) ng · hr/ml
  AUC0-∞: 1962.2 (726.5) ng · hr/ml
  Cmax: 116.0 (22.5) ng/ml
  Tmax: 2.4 (0.6) hr
  T½: 29.1 (9.3) hr
[1]; 3-60 mg
  Dose proportionality of Cmax and AUC: Both Cmax and AUC increased linearly with dose
[1]; across dose groups
  Mean half-life estimates: 28 to 50 h
  Volume of distribution: 1417 to 3086 L
[1]; across dose groups 3-60 mg
  Time of peak concentrations after oral dosing: 2 to 3 h
[2]; 60 mg (N = 6)
  TEAE: Catheter Site Infection: 0
  TEAE: Catheter Site Pain: 0
  TEAE: Catheter Site Related Reaction: 0
  TEAE: Cellulitis: 0
  TEAE: Diarrhoea: 0
  TEAE: Dry Mouth: 0
  TEAE: Ear and Labyrinth Disorders: 0
  TEAE: Epistaxis: 0
  TEAE: Euphoric Mood: 0
  TEAE: General Disorders and Administration Site Conditions: 0
  TEAE: Hyperaesthesia: 0
  TEAE: Infections and Infestations: 0
  TEAE: Limb Discomfort: 0
  TEAE: Malaise: 0
  TEAE: Nausea: 0
  TEAE: Oropharyngeal Pain: 0
  TEAE: Pseudoparalysis: 0
  TEAE: Respiratory, Thoracic and Mediastinal Disorders: 0
  TEAE: Rhinorrhoea: 0
  TEAE: Skin Discomfort: 0
  TEAE: Skin Irritation: 0
  TEAE: Skin and Subcutaneous Tissue Disorders: 0
  TEAE: Somnoience: 0
  TEAE: Tinnitus: 0
  TEAE: Tremor: 0
  TEAE: Urinary Tract Infection: 0
  TEAE: Vomiting: 0
[2]; 120 mg (N = 6)
  TEAE: Back Pain: 0
  TEAE: Catheter Site Infection: 0
  TEAE: Catheter Site Related Reaction: 0
  TEAE: Depressed Mood: 0
  TEAE: Dry Eye: 0
  TEAE: Dyspepsia: 0
  TEAE: Euphoric Mood: 0
  TEAE: Limb Discomfort: 0
  TEAE: Malaise: 0
  TEAE: Musculoskeletal and Connective Tissue Disorders: 0
  TEAE: Psychiatric Disorders: 0
  TEAE: Somnoience: 0
  TEAE: Urinary Tract Infection: 0
[2]; 180 mg (N = 6)
  TEAE: Catheter Site Infection: 0
  TEAE: Catheter Site Pain: 0
  TEAE: Depressed Mood: 0
  TEAE: Diarrhoea: 0
  TEAE: Dry Eye: 0
  TEAE: Dyspepsia: 0
  TEAE: Ear and Labyrinth Disorders: 0
  TEAE: Epistaxis: 0
  TEAE: Euphoric Mood: 0
  TEAE: Hyperaesthesia: 0
  TEAE: Malaise: 0
  TEAE: Pseudoparalysis: 0
  TEAE: Psychiatric Disorders: 0
  TEAE: Respiratory, Thoracic and Mediastinal Disorders: 0
  TEAE: Rhinorrhoea: 0
  TEAE: Skin Discomfort: 0
  TEAE: Skin Irritation: 0
  TEAE: Skin and Subcutaneous Tissue Disorders: 0
  TEAE: Somnoience: 0
  TEAE: Tinnitus: 0
  TEAE: Tremor: 0
[2]; single dose 60, 120 or 180 mg
  Adverse effects incl. hallucinatory effects: Few adverse effects of noribogaine were observed in any of the participants, including no hallucinatory effects
[3]
  QT interval prolongation (ΔQTc1): dose-dependent increase in QT interval prolongation
[4]; single dose of 3 mg
  Cmax: 5.2 ng/mL
  mean AUC/24 hr: 3.1 ng/mL
[4]; single dose of 10 mg
  Cmax: 14.5 ng/mL
  mean AUC/24 hr: 10.6 ng/mL
[4]; single dose of 30 mg
  Cmax: 55.9 ng/mL
  mean AUC/24: 29.2 ng/mL
[4]; single dose of 60 mg
  Cmax: 116 ng/mL
  mean AUC/24: 61 ng/mL
[5]; 5 mg/kg
  Findings at the NOAEL dose: only transient reduction in food consumption in one dog
[5]; 10 mg/kg
  Clinical signs: Convulsions and other CNS-related clinical signs
  Onset of clinical signs after dosing: 20 min
[5]; oral doses of 5 (n=2) or 10 (n=2) mg/kg
  Mortality: no mortality occurred
[6]
  NOAEL: 5 mg/kg
[7]
  MTD: > 160 mg/kg
[8]
  Analgesic effect in the cold pressor test: no analgesic effect

Source: US20150258107A1, “METHODS AND COMPOSITIONS FOR TREATING DEPRESSION” (DemeRx, Inc., priority 2014, published 2015)
